We go through one compound from patent US11970460B1, “4-(4,5-bis(4-bromophenyl)-2-phenyl-1H-imidazol-1-yl)benzoic acid as an antimicrobial compound” (KING FAISAL UNIVERSITY, priority 2023, dated 2024).

Each structure is given as a SMILES string.

The subject of one data set is Staphylococcus aureus. The data set is described as follows: Agar plate disc-diffusion, antibacterial activity (inhibition zone). It counts as cell-based. Particulars: nutrient agar, 37° C., 48 h. The protocol: (§1) The agar plate disc-diffusion method was applied. […] The discs were then placed onto the surface of agar plates (nutrient agar for bacteria and Sabouraud's dextrose agar for fungi) seeded with the test organism. Each plate contained 15 mL of the agar medium, previously seeded with 0.2 mL of the broth culture of each organism pregrown for 18 hours. The plates were incubated at 37° C. for 48 h, and 72 h for fungi. The inhibition zones were measured in mm. Discs impregnated with DMSO were used as a control, and its inhibition zone was subtracted from the tested compound actual inhibition zone.

In another data set the test system is Pseudomonas aeruginosa. The description is as above. Particulars: nutrient agar, 37° C., 48 h. It counts as cell-based. The protocol: as §1
The next data set relates to Escherichia coli. The description is as above. It counts as cell-based. Particulars: nutrient agar, 37° C., 48 h. The method, then: as §1
In the next data set the test system is Bacillus cereus. Described as above. It counts as cell-based. The settings on record: nutrient agar, 37° C., 48 h. The method, then:
as §1

A further data set deals with Aspergillus flavus. In words: Agar plate disc-diffusion, antifungal activity (inhibition zone). In kind it is cell-based. Particulars: Sabouraud's dextrose agar, 37° C., 72 h. The method, then: as §1
For data set [1], the system named is Chrysosporium keratinophilum. The description is as above. In kind it is cell-based. The settings on record: Sabouraud's dextrose agar, 37° C., 72 h. The protocol:
as §1

The mark [2] stands for this setting: A = concentration of comp. = 10,000 μL.
Setting [3] is: B = concentration of comp. = 30,000 μL.
Where [4] appears, read: C = concentration of comp. = 50,000 μL.

As a reminder, the melting point is the temperature, or range, at which the solid turns liquid. `O=C(O)c1ccc(-n2c(-c3ccccc3)nc(-c3ccc(Br)cc3)c2-c2ccc(Br)cc2)cc1` [V, 4-(4,5-bis(4-bromophenyl)-2-phenyl-1H-imidazol-1-yl)benzoic acid]: the melting point is 284 °C. Besides, in the data set with Staphylococcus aureus (setting [2]), the “inhibition zone, Staphylococcus aureus, A” value worked out at 18 mm. In the data set with Staphylococcus aureus (setting [3]), the “inhibition zone, Staphylococcus aureus, B” value is reported as 21 mm. Also, the “inhibition zone, Staphylococcus aureus, C” value with Staphylococcus aureus (setting [4]) is 31 mm. Moreover, in the data set on Pseudomonas aeruginosa (setting [2]), the “inhibition zone, Pseudomonas aeruginosa, A” value was 25 mm. In addition, in the data set on Pseudomonas aeruginosa (setting [3]), the “inhibition zone, Pseudomonas aeruginosa, B” value was 28 mm. In the data set with Pseudomonas aeruginosa (setting [4]), the “inhibition zone, Pseudomonas aeruginosa, C” value is given as 44 mm. Also, the “inhibition zone, Escherichia coli, A” value in the data set on Escherichia coli (setting [2]) is on record as 28 mm. In the data set with Escherichia coli (setting [3]), the “inhibition zone, Escherichia coli, B” value came to 35 mm. Also, in the data set with Escherichia coli (setting [4]), the “inhibition zone, Escherichia coli, C” value is reported as 50 mm. In addition, the “inhibition zone, Bacillus Cereus, A” value in the data set with Bacillus cereus (setting [2]) is reported as 24 mm. Moreover, the “inhibition zone, Bacillus Cereus, B” value with Bacillus cereus (setting [3]) was found to be 27 mm. The “inhibition zone, Bacillus Cereus, C” value in the data set on Bacillus cereus (setting [4]) turned out to be 39 mm. The “inhibition zone, Aspergillus flavus, A” value with Aspergillus flavus (setting [2]) is 23 mm. In addition, in the data set on Aspergillus flavus (setting [3]), the “inhibition zone, Aspergillus flavus, B” value is reported as 27 mm. Also, in the data set on Aspergillus flavus (setting [4]), the “inhibition zone, Aspergillus flavus, C” value is on record as 33 mm. Besides, the “inhibition zone, Chrysosporium keratinophilum, A” value in data set [1] (setting [2]) worked out at 27 mm. For the same compound, the “inhibition zone, Chrysosporium keratinophilum, B” value in data set [1] (setting [3]) is 29 mm. The “inhibition zone, Chrysosporium keratinophilum, C” value in data set [1] (setting [4]) came to 48 mm.
